Reference: patent US11111237B2, “Bicyclic compound and use thereof” (SK BIOPHARMACEUTICALS CO., LTD., priority 2019, dated 2021)
Structures can show the parent of a compound that is named as a salt.

Biological target: PRMT5-MEP50 enzyme complex (Homo sapiens (Human), UniProt O14744)
Experiment: PRMT5 enzyme activity in vitro assay (methylation of histone H4R3, ELISA absorbance at 450 nm)
Type: biochemical
Details: SAM, histone H4 peptide, room temperature 2 hours, 8 points from 10 μM to 0.128 nM
Procedure: Method for Measuring Enzyme Activity
In vitro assay: PRMT5-MEP50 enzyme complex, cofactor S-adenosylmethionine (SAM) and histone H4 peptide were reacted in vitro, and methylation of arginine (H4R3)—which is the third amino acid of histone H4—was measured in order to measure the enzyme activity of PRMT5.
Reagents: PRMT5-MEP50 enzyme complex (Catalog No. 51045), blocking buffer (52100-B), histone methyltransferase reaction buffer 2 (4×HMT assay buffer 2, Catalog No. 52170), and primary antibody (primary antibody 4-3, Catalog No. 52150) were purchased from BPS Bioscience (USA). The histone H4 peptide (1-20 amino acids) was custom made by Komabiotech (Korea) and used. S-adenosylmethionine was purchased from NEB (New England Biolabs, USA, Catalog No. B9003S). Plates for coating histone H4 peptide, washing buffer and color development reagent were purchased from the following vendors: Plate (Immobilizer™-Amino Plate, NUNC, Denmark, Catalog No. 436023), carbonate-bicarbonate buffer (Sigma-Aldrich, USA, Catalog No. C3041), washing buffer (10×TBST, Biosesang, Korea, Catalog No. T2005), TMB ELISA substrate (Abcam, UK, Catalog No. ab210902), horseradish peroxidase (HRP)-conjugated antibody (Abcam, UK, Catalog No. ab6721).
Experimental procedure: The histone H4 peptide was diluted with carbonate-bicarbonate buffer and prepared to 100 μg/mL, and then dispensed onto the plate per 100 μL and reacted at 37° C. for 1 hour. PRMT5-MEP50 enzyme complex and S-adenosylmethionine were diluted with histone methyltransferase reaction buffer to prepare 5 μg/mL and 2 μM, respectively, and then 20 μL of PRMT5-MEP50 enzyme complex and 25 μL of S-adenosylmethionine were dispensed onto the plate prepared above. 5 μL of the compound diluted with 10% dimethyl sulfoxide solution was added thereto and reacted at room temperature for 2 hours (final volume=50 μL). The concentration of the compound was diluted 1:5 from 10 μM until the lowest concentration of 0.128 nM, and 8 points were used for the test. After preparing the primary antibody by diluting 1:2000 with blocking buffer, 100 μL was added to the plate and reacted at room temperature for 1 hour. After preparing horseradish peroxidase-conjugated antibody by diluting 1:10,000 with blocking buffer, 100 μL was added to the plate and reacted at room temperature for 1 hour. 100 μL of TMB substrate was added and reacted for 3 minutes at room temperature, and 100 μL of 1 N sulfuric acid was then added to terminate the reaction. Then, the absorbance at 450 nm was measured to calculate the IC50 value of the compound. (+++: 1 to 100 nM, ++: greater than 100 to 1,000 nM, +: greater than 1,000 to 10,000 nM)

PRMT5-MEP50 enzyme complex, sequence (O14744 2-637): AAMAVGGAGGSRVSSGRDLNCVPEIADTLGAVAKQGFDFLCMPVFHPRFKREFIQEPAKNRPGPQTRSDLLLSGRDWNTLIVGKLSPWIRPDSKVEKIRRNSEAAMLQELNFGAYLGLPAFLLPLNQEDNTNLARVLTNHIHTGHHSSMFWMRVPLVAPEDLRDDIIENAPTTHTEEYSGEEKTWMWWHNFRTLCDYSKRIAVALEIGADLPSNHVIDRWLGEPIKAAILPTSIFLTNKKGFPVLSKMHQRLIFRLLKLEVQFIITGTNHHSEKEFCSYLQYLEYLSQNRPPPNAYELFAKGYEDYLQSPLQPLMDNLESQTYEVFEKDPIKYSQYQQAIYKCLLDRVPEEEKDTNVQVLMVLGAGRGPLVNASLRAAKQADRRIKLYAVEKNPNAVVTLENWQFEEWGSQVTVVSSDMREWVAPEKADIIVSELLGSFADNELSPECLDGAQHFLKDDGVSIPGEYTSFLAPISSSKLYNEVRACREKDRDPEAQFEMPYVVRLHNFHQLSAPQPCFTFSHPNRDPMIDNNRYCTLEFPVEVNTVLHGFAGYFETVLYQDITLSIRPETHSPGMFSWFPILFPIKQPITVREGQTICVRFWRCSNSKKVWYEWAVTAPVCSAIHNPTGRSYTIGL
PRMT5-MEP50 enzyme complex, sequence (Q9BQA1 2-342 partner): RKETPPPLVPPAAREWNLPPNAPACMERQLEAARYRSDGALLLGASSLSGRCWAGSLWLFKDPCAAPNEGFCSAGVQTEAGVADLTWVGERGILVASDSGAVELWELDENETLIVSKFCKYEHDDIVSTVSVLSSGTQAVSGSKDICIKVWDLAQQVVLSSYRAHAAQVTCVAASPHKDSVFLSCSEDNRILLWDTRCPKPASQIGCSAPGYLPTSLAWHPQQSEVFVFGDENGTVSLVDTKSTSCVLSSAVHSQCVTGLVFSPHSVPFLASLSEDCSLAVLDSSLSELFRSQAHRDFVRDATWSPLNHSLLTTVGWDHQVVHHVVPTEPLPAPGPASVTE

IC50 [nM] | SMILES
100 to 1000 | CN1CCC[C@H](Oc2ccc3c(c2)OCCN(C[C@H](O)CN2CCc4ccccc4C2)C3=O)C1 [Example 213, 4-[(2R)-3-(3,4-dihydro-1H-isoquinolin-2-yl)-2-hydroxy-propyl]-8-[(1-methyl-3-piperidyl)oxy]-2,3-dihydro-1,4-benzoxazepin-5-one]
1 to 100 | CN1CCN(C[C@H](O)CN2CCc3ccccc3C2)C(=O)c2ccc(CN3CCOCC3)cc21 [Example 115, 4-[(2R)-3-(3,4-dihydro-1H-isoquinolin-2-yl)-2-hydroxy-propyl]-1-methyl-8-(morpholinomethyl)-2,3-dihydro-1,4-benzodiazepin-5-one]
100 to 1000 | O=C(c1ccc2c(c1)OCCN(C[C@H](O)CN1CCc3ccccc3C1)C2=O)N1CCC(F)(F)CC1 [Example 196, 8-(4,4-difluoropiperidine-1-carbonyl)-4-[(2R)-3-(3,4-dihydro-1H-isoquinolin-2-yl)-2-hydroxy-propyl]-2,3-dihydro-1,4-benzoxazepin-5-one]
100 to 1000 | CC(O)CN1CCC(Oc2ccc3c(c2)O[C@H](C)CN(C[C@H](O)CN2CCc4ccccc4C2)C3=O)CC1 (stereo partly drawn) [Example 245, (2R)-4-[(2R)-3-(3,4-dihydro-1H-isoquinolin-2-yl)-2-hydroxy-propyl]-8-[[1-(2-hydroxypropyl)-4-piperidyl]oxy]-2-methyl-2,3-dihydro-1,4-benzoxazepin-5-one]
1 to 100 | CC(O)CN1CCC(Oc2ccc3c(n2)OC(C)(C)CN(C[C@H](O)CN2CCc4ccccc4C2)C3=O)CC1 (stereo partly drawn) [Example 248, 4-[(2R)-3-(3,4-dihydro-1H-isoquinolin-2-yl)-2-hydroxy-propyl]-8-[[1-(2-hydroxypropyl)-4-piperidyl]oxy]-2,2-dimethyl-3H-pyrido[3,2-f][1,4]oxazepin-5-one]
100 to 1000 | CC(=O)N1CC[C@H](Oc2ccc3c(c2)OCCN(C[C@H](O)CN2CCc4ccccc4C2)C3=O)C1 [Example 82, 8-[(3S)-1-acetylpyrrolidin-3-yl]oxy-4-[(2R)-3-(3,4-dihydro-1H-isoquinolin-2-yl)-2-hydroxy-propyl]-2,3-dihydro-1,4-benzoxazepin-5-one]
100 to 1000 | CCN1CC(Oc2ccc3c(c2)OCCN(C[C@H](O)CN2CCc4ccccc4C2)C3=O)C1 [Example 94, 4-[(2R)-3-(3,4-dihydro-1H-isoquinolin-2-yl)-2-hydroxy-propyl]-8-(1-ethylazetidin-3-yl)oxy-2,3-dihydro-1,4-benzoxazepin-5-one]
1 to 100 | CC(C)Cc1ccc2c(c1)OCCN(C[C@H](O)CN1CCc3ccccc3C1)C2=O [Example 12, 4-[(2R)-3-(3,4-dihydro-1H-isoquinolin-2-yl)-2-hydroxy-propyl]-8-isobutyl-2,3-dihydro-1,4-benzoxazepin-5-one]
1 to 100 | O=C1c2ccc(CN3CC4(COC4)C3)cc2OCCN1C[C@H](O)CN1CCc2ccccc2C1 [Example 28, 4-[(2R)-3-(3,4-dihydro-1H-isoquinolin-2-yl)-2-hydroxy-propyl]-8-(2-oxa-6-azaspiro[3.3]heptan-6-ylmethyl)-2,3-dihydro-1,4-benzoxazepin-5-one]
100 to 1000 | O=C1c2ccc(CN3CCC(F)C3)cc2OCCN1C[C@H](O)CN1CCc2ccccc2C1 (stereo partly drawn) [Example 51, 4-[(2R)-3-(3,4-dihydro-1H-isoquinolin-2-yl)-2-hydroxy-propyl]-8-[(3-fluoropyrrolidin-1-yl)methyl]-2,3-dihydro-1,4-benzoxazepin-5-one]
100 to 1000 | O=C1c2ccc(Cl)nc2OCCN1C[C@H](O)CN1CCc2ccccc2C1 [Example 153, 8-chloro-4-[(2R)-3-(3,4-dihydro-1H-isoquinolin-2-yl)-2-hydroxy-propyl]-2,3-dihydropyrido[3,2-f][1,4]oxazepin-5-one]
100 to 1000 | O=C1c2ccncc2OCCN1C[C@H](O)CN1CCc2ccccc2C1 [Example 152, 4-[(2R)-3-(3,4-dihydro-1H-isoquinolin-2-yl)-2-hydroxy-propyl]-2,3-dihydropyrido[4,3-f][1,4]oxazepin-5-one]
100 to 1000 | C[C@H](O)CN1CCC(Oc2ccc3c(c2)O[C@H](C)CN(C[C@H](O)CN2CCc4ccccc4C2)C3=O)CC1 [Example 267, (2R)-4-[(2R)-3-(3,4-dihydro-1H-isoquinolin-2-yl)-2-hydroxy-propyl]-8-[[1-[(2S)-2-hydroxypropyl]-4-piperidyl]oxy]-2-methyl-2,3-dihydro-1,4-benzoxazepin-5-one]
1 to 100 | CN(CCF)C1CCC(Oc2ccc3c(c2)OCCN(C[C@H](O)CN2CCc4ccccc4C2)C3=O)CC1 (stereo partly drawn) [Example 199, 4-[(2R)-3-(3,4-dihydro-1H-isoquinolin-2-yl)-2-hydroxypropyl]-8-[4-[2-fluoroethyl(methyl)amino]cyclohexoxy]-2,3-dihydro-1,4-benzoxazepin-5-one]
1 to 100 | O=C1c2ccc(Br)cc2OCCN1C[C@H](O)CN1CCc2ccccc2C1 [Example 151, 8-bromo-4-[(2R)-3-(3,4-dihydro-1H-isoquinolin-2-yl)-2-hydroxy-propyl]-2,3-dihydro-1,4-benzoxazepin-5-one]
100 to 1000 | CC1CC(Oc2ccc3c(c2)N(C)CCN(C[C@H](O)CN2CCc4ccccc4C2)C3=O)CCN1 (stereo partly drawn) [Example 138, 4-[(2R)-3-(3,4-dihydro-1H-isoquinolin-2-yl)-2-hydroxy-propyl]-1-methyl-8-[(2-methyl-4-piperidyl)oxy]-2,3-dihydro-1,4-benzodiazepin-5-one; dihydrochloride]
1 to 100 | O=C1c2ccc(OC3CCN(C4CC4)CC3)cc2OCCN1C[C@H](O)CN1CCc2ccccc2C1 [Example 90, 8-[(1-cyclopropyl-4-piperidyl)oxy]-4-[(2R)-3-(3,4-dihydro-1H-isoquinolin-2-yl)-2-hydroxy-propyl]-2,3-dihydro-1,4-benzoxazepin-5-one]
100 to 1000 | CN1CCC(Oc2ccc3c(n2)OC(C)(C)CN(C[C@H](O)CN2CCc4ccccc4C2)C3=O)CC1 [Example 145, 4-[(2R)-3-(3,4-dihydro-1H-isoquinolin-2-yl)-2-hydroxypropyl]-2,2-dimethyl-8-[(1-methyl-4-piperidyl)oxy]-3H-pyrido[3,2-f][1,4]oxazepin-5-one]
100 to 1000 | CC(=O)N1CCC(COc2ccc3c(c2)OCCN(C[C@H](O)CN2CCc4ccccc4C2)C3=O)CC1 [Example 70, 8-[(1-acetyl-4-piperidyl)methoxy]-4-[(2R)-3-(3,4-dihydro-1H-isoquinolin-2-yl)-2-hydroxy-propyl]-2,3-dihydro-1,4-benzoxazepin-5-one]
100 to 1000 | COCCN1CC[C@@H](Oc2ccc3c(c2)OCCN(C[C@H](O)CN2CCc4ccccc4C2)C3=O)C1 [Example 272, 4-[(2R)-3-(3,4-dihydro-1H-isoquinolin-2-yl)-2-hydroxy-propyl]-8-[(3R)-1-(2-methoxyethyl)pyrrolidin-3-yl]oxy-2,3-dihydro-1,4-benzoxazepin-5-one]
100 to 1000 | C[C@@H]1CN(C[C@H](O)CN2CCc3ccccc3C2)C(=O)c2ccc(O[C@@H]3CCN(C)C3)cc2O1 [Example 273, (2R)-4-[(2R)-3-(3,4-dihydro-1H-isoquinolin-2-yl)-2-hydroxy-propyl]-2-methyl-8-[(3R)-1-methylpyrrolidin-3-yl]oxy-2,3-dihydro-1,4-benzoxazepin-5-one]

SMILES | IC50 [nM]
O=C1c2ccc(O[C@@H]3CCN(CCO)C[C@H]3F)cc2OCCN1C[C@H](O)CN1CCc2ccccc2C1 [Example 253, dihydrochloride] | 100 to 1000
CC1CN(C[C@H](O)CN2CCc3ccccc3C2)C(=O)c2ccc(OC3CCNCC3)cc2O1 (stereo partly drawn) [Example 140, 4-[(2R)-3-(3,4-dihydro-1H-isoquinolin-2-yl)-2-hydroxypropyl]-2-methyl-8-(4-piperidyloxy)-2,3-dihydro-1,4-benzoxazepin-5-one di hydrochloride] | 100 to 1000
O=C1c2ccc(OC3CC4CCC(C3)N4CCF)cc2OCCN1C[C@H](O)CN1CCc2ccccc2C1 (some centres unmarked) [Example 215] | 100 to 1000
C[C@@H]1CN(C[C@H](O)CN2CCc3ccccc3C2)C(=O)c2ccc(OC3CC4CCC(C3)N4CCF)cc2O1 (some centres unmarked) [Example 242] | 1 to 100
C[C@@H]1CN(C[C@H](O)CN2CCc3ccccc3C2)C(=O)c2ccc(OC3CCN(C)CC3)cc2O1 [Example 143, (2R)-4-[(2R)-3-(3,4-dihydro-1H-isoquinolin-2-yl)-2-hydroxypropyl]-2-methyl-8-[(1-methyl-4-piperidyl)oxy]-2,3-dihydro-1,4-benzoxazepin-5-one] | 100 to 1000
